The source of these data is US7488811B2, “Macrolide compounds endowed with antiinflammatory activity” (Zambon Group S.p.A., priority 2002, dated 2009).

SMILES strings stand for the structures.

One may read the inhibition in vivo as the drop in the measured response relative to a control, in per cent. By MIC is commonly meant the least concentration at which growth counts as inhibited. High values mean a need for much substance, low ones inhibition by little substance.

The subject of assay [1] is PMA-induced oedema in mouse ear. As to the kind of experiment: Acute contact dermatitis: TPA (PMA)-induced ear oedema in mice. It is filed as in vivo. To be noted: CD1 mice, 500 μg/ear topical in TPDS 30 min before TPA 0.01%, 6 h. Here is the method: Groups of 5-6 CD1 mice (18-24 g) were used. • Administration of the compounds
All the macrolide compounds were dissolved in Trans-phase Delivery System (TPDS), a vehicle formed by 10% benzyl alcohol, 40% acetone and 50% isopropanol.
15 microlitres of the compounds (500 μg), dissolved in TPDS, were applied topically to the inner surface of an ear; 30 minutes later, 12 microlitres of a solution of tetradecanoylphorbol acetate (TPA) at a concentration of 0.01% dissolved in acetone were applied to the same area.
Six hours later, the animals were sacrificed by inhalation of CO2. • Evaluation of the results
Two methods were used to evaluate the auricular oedema: • a) Weight of a given portion of auricular pinna. • b) Measurement of the auricular thickness using precision spring callipers.
The degree of oedema was calculated by subtracting the weight or the thickness of the untreated ear from that of the contralateral treated ear. To determine the degree of remission of the oedema, the difference (weight or thickness) of the groups treated with TPA+macrolides was then compared with the groups treated with TPA alone.
The activity of the macrolide compounds was measured by using the modified method of Zunic et al. (1998): MDL (Lysyl) GDP, a non-toxic muramyl dipeptide derivative inhibits cytokine production by activated macrophages and protects mice from phorbol ester- and oxazolone-induced inflammation (J. Invest. Dermatol., 111(1), 77-82).
The data relating to erythromycin and azythromycin concern the treatment with a single dose of 500 μg/ear.

Assay [2] concerns Streptococcus pneumoniae ATCC 49619. Briefly: Antibiotic activity, MIC in liquid medium. To be noted: ATCC49619, Strep. pneum ATTC 49619. It is filed as cell-based. On the procedure:
(§1) The MIC values were determined in liquid earth according to the method described in “Manual of Clinical Microbiology, 7th edition (1999), American Society for Microbiology”.

Assay [3] deals with Staphylococcus aureus ATCC 29213. Briefly: Antibiotic activity, MIC in liquid medium. Type of assay: cell-based. To be noted: ATCC29213, Staph. aureus ATCC 29213. Here is the method: as §1
Assay [4] relates to Staphylococcus aureus ATCC 6538. Briefly: Antibiotic activity at 128 μg/ml. To be noted: Staph. aureus ATCC 6538; 128 μg/ml. It is filed as cell-based. Here is the method: as §1
Assay [5] has as its system Streptococcus pyogenes ATCC 19615. Briefly: Antibiotic activity at 128 μg/ml. It is filed as cell-based. To be noted: Strep. pyogenes ATTC 19615; 128 μg/ml. Here is the method: as §1
The subject of assay [6] is Enterococcus faecalis ATCC 29212. Briefly: Antibiotic activity, MIC or activity at 128 μg/ml. Type of assay: cell-based. To be noted: Enter. faecalis ATCC 29212; for MIC: Enterococcus faecalis, ATCC29212. On the procedure:
as §1

[7] abbreviates: method a: weight of a given portion of auricular pinna.
Setting [8] is: method b: auricular thickness by precision spring callipers.

Consider `CC[C@H]1OC(=O)[C@H](C)[C@@H](O)[C@H](C)[C@H](OC2O[C@H](C)C[C@H](N(C)C(C)=O)[C@@H]2O)C(C)(OC)C[C@H](C)/C(=N\O)[C@H](C)[C@@H](O)[C@]1(C)O` (some centres unmarked) [Compound 29], for which the inhibition in vivo at 500 µg/ear in assay [1] (setting [7]) was found to be 44.5%.

`CC[C@H]1OC(=O)[C@H](C)[C@@H](O)[C@H](C)[C@@H](O[C@@H]2O[C@H](C)C=C[C@H]2O)C(C)(O)C[C@@H](C)/C(=N\OC)[C@H](C)[C@@H](O)[C@]1(C)O` (some centres unmarked) [Compound 17] registered an inhibition in vivo at 500 µg/ear in assay [1] (setting [7]) of 41.9%.

For the compound `CC[C@H]1OC(=O)[C@H](C)[C@@H](O)[C@H](C)[C@@H](O[C@@H]2O[C@H](C)CC(N(C)CCCNCc3nccs3)[C@H]2O)C(C)(O)C[C@@H](C)[C@H](O)[C@H](C)[C@@H](O)[C@]1(C)O` (some centres unmarked) [Compound 5], in assay [1] (setting [7]), the inhibition in vivo at 500 µg/ear was found to be 53.4%.

`CC[C@H]1OC(=O)[C@H](C)[C@@H](O)[C@H](C)[C@@H](O[C@@H]2O[C@H](C)C=C[C@H]2O)C(C)(O)C[C@@H](C)[C@H](O)[C@H](C)[C@@H](O)[C@]1(C)O` (some centres unmarked) [Compound 9]: the inhibition in vivo at 500 µg/ear in assay [1] (setting [7]) worked out at 32.4%.

In assay [1] (setting [7]), `CC[C@H]1OC(=O)[C@H](C)[C@@H](O)[C@H](C)[C@@H](O[C@@H]2O[C@H](C)C=C[C@H]2O)C(C)(O)C[C@@H](C)/C(=N\O)[C@H](C)[C@@H](O)[C@]1(C)O` (some centres unmarked) [Compound 13] registered an inhibition in vivo at 500 µg/ear of 77.4%. The MIC in assay [2], in assay [3] and in assay [6] was > 128 µg/mL in each case. Moreover, the “Antibiotic activity at 128 μg/ml” value in assay [4], in assay [5] and in assay [6] was “not active” throughout.

For the compound `CC[C@H]1OC(=O)[C@H](C)[C@@H](O)[C@H](C)[C@@H](O[C@@H]2O[C@H](C)C[C@H]([N+](C)(C)[O-])[C@H]2O)C(C)(O)C[C@@H](C)/C(=N\OC)[C@H](C)[C@@H](O)[C@]1(C)O` (some centres unmarked) [Compound 16], in assay [1] (setting [7]), the inhibition in vivo at 500 µg/ear is 72.3%.

`CC[C@H]1OC(=O)[C@H](C)[C@@H](O)[C@H](C)[C@@H](O[C@@H]2O[C@H](C)C[C@H]([N+](C)(C)[O-])[C@H]2O)C(C)(O)C[C@@H](C)[C@H](O)[C@H](C)[C@@H](O)[C@]1(C)O` (some centres unmarked) [Compound 3] displayed an inhibition in vivo at 500 µg/ear in assay [1] (setting [7]) of 65.2%. In addition, the minimal inhibitory concentration (MIC) in assay [2], in assay [3] and in assay [6] was > 128 µg/mL each time. Besides, the “Antibiotic activity at 128 μg/ml” value in assay [4], in assay [5] and in assay [6] was “not active” in each case.

`CC[C@H]1OC(=O)[C@H](C)[C@@H](O)[C@H](C)[C@H](O[C@@H]2O[C@H](C)CC[C@@H]2O)[C@](C)(O)C[C@@H](C)/C(=N\OCCNCCNCc2nccs2)[C@H](C)[C@H](O)[C@]1(C)O` [Compound 21]: the inhibition in vivo at 500 µg/ear in assay [1] (setting [8]) was found to be 74.1%. For the same compound, the MIC in assay [2], in assay [3] and in assay [6] was > 128 µg/mL in each case. The “Antibiotic activity at 128 μg/ml” value in assay [4], in assay [5] and in assay [6] was “not active” each time.

On to `CC[C@H]1OC(=O)[C@H](C)[C@@H](O)[C@H](C)[C@@H](O[C@@H]2O[C@H](C)CC(N(C)C(=O)CNCCN(C)C)[C@H]2O)C(C)(O)C[C@@H](C)[C@H](O)[C@H](C)[C@@H](O)[C@]1(C)O` (some centres unmarked) [Compound 6], for which the inhibition in vivo at 500 µg/ear in assay [1] (setting [7]) stood at 30.9%.

Consider `CC[C@H]1OC(=O)[C@H](C)[C@@H](O)[C@H](C)[C@@H](O[C@@H]2O[C@H](C)C[C@H](N(C)C)[C@H]2O)C(C)(O)C[C@@H](C)[C@H](O)[C@H](C)[C@@H](O)[C@]1(C)O` (some centres unmarked) [Compound 2], for which, in assay [1] (setting [7]), the inhibition in vivo at 500 µg/ear came to 36.2%. The minimal inhibitory concentration (MIC) in assay [2], in assay [3] and in assay [6] was > 128 µg/mL in each case. Further, the “Antibiotic activity at 128 μg/ml” value in assay [4], in assay [5] and in assay [6] was “not active” each time.

As for `CC[C@H]1OC(=O)[C@H](C)[C@@H](O)[C@H](C)[C@H](O[C@@H]2O[C@H](C)CC([N+](C)(C)[O-])[C@@H]2O)[C@](C)(O)C[C@@H](C)/C(=N\OCCNCCNCc2nccs2)[C@H](C)[C@H](O)[C@]1(C)O` (some centres unmarked) [Compound 20], in assay [1] (setting [8]), the inhibition in vivo at 500 µg/ear turned out to be 49.9%. Besides, the MIC in assay [2], in assay [3] and in assay [6] was > 128 µg/mL in each case.

For the compound `CC[C@H]1OC(=O)[C@H](C)[C@@H](O)[C@H](C)[C@@H](O[C@@H]2O[C@H](C)CC[C@H]2O)C(C)(O)C[C@@H](C)/C(=N\OCCNCCNCc2ccco2)[C@H](C)[C@@H](O)[C@]1(C)O` (some centres unmarked) [Compound 26], the “Antibiotic activity at 128 μg/ml” value in assay [4], in assay [5] and in assay [6] was “not active” each time.

In assay [1] (setting [7]), `CC[C@H]1OC(=O)[C@H](C)[C@@H](O)[C@H](C)[C@@H](O[C@@H]2O[C@H](C)C[C@H]([N+](C)(C)[O-])[C@H]2O)C(C)(O)C[C@@H](C)/C(=N\O)[C@H](C)[C@@H](O)[C@]1(C)O` (some centres unmarked) [Compound 12] displayed an inhibition in vivo at 500 µg/ear of 87.4%. Further, the MIC in assay [2], in assay [3] and in assay [6] was > 128 µg/mL each time. The “Antibiotic activity at 128 μg/ml” value in assay [4], in assay [5] and in assay [6] was “not active” throughout.

Consider `CC[C@H]1OC(=O)[C@H](C)[C@@H](O)[C@H](C)[C@@H](O[C@@H]2O[C@H](C)C[C@H](N(C)CCNCCNCc3nccs3)[C@H]2O)[C@@](C)(O)C[C@@H](C)[C@H](O)[C@H](C)[C@@H](O)[C@]1(C)O` [Compound 7], for which the inhibition in vivo at 500 µg/ear in assay [1] (setting [7]) is 45%.

`CC[C@H]1OC(=O)[C@H](C)[C@@H](O[C@H]2C[C@@](C)(OC)[C@@H](O)[C@H](C)O2)[C@H](C)[C@@H](O[C@@H]2O[C@H](C)C[C@H](N(C)C)[C@H]2O)[C@](C)(O)C[C@@H](C)CN(C)[C@H](C)[C@@H](O)[C@]1(C)O` [Azythromycin, reference compound] yielded an inhibition in vivo at 500 µg/ear in assay [1] (setting [7]) of 40%.

`CC[C@H]1OC(=O)[C@H](C)[C@@H](O)[C@H](C)[C@@H](O[C@@H]2O[C@H](C)C[C@H](N(C)C)[C@H]2O)C(C)(O)C[C@@H](C)/C(=N\OC)[C@H](C)[C@@H](O)[C@]1(C)O` (some centres unmarked) [Compound 15]: the inhibition in vivo at 500 µg/ear in assay [1] (setting [7]) is 31.6%. Also, the “Antibiotic activity at 128 μg/ml” value in assay [4], in assay [5] and in assay [6] was “not active” in each case.

In assay [1] (setting [7]), `CC[C@H]1OC(=O)[C@H](C)[C@@H](O)[C@H](C)[C@H](OC2O[C@H](C)C[C@H](N(C)CCCOCc3cccnc3)[C@@H]2O)C(C)(O)C[C@H](C)[C@H](O)[C@H](C)[C@@H](O)[C@]1(C)O` (some centres unmarked) [Compound 30] came in with an inhibition in vivo at 500 µg/ear of 39.8%.

Consider `CC[C@H]1OC(=O)[C@H](C)[C@@H](O)[C@H](C)[C@@H](O[C@@H]2O[C@H](C)C[C@H](N(C)C)[C@H]2O)C(C)(OC)C[C@@H](C)[C@H](O)[C@H](C)[C@@H](O)[C@]1(C)O` (some centres unmarked) [Compound 27], for which the MIC in assay [2], in assay [3] and in assay [6] was > 128 µg/mL in each case.

Turning to `CC[C@H]1OC(=O)[C@H](C)[C@@H](O)[C@H](C)[C@@H](O[C@@H]2O[C@H](C)C[C@H](N(C)C)[C@H]2O)C(C)(O)C[C@@H](C)/C(=N\O)[C@H](C)[C@@H](O)[C@]1(C)O` (some centres unmarked) [Compound 11], the inhibition in vivo at 500 µg/ear in assay [1] (setting [7]) turned out to be 70.2%. Also, the minimum inhibitory concentration (MIC) in assay [2], in assay [3] and in assay [6] was > 128 µg/mL in each case. In addition, the “Antibiotic activity at 128 μg/ml” value in assay [4], in assay [5] and in assay [6] was “not active” each time.
